Each structure is given as a SMILES string.

One assay has as its system Lewis lung carcinoma. Kind of assay: Tumour growth and metastases of Lewis lung carcinoma in mice. Type of assay: in vivo. As to conditions: 5 injections. As to the method:
Female C57B16 mice (10 mice/group, 18-22 g body weight) were i.m. injected into the left hind leg with 0.1 ml of a tumour cell suspension of Lewis lung carcinoma (day 0).
Nine groups of animals were investigated. The test compounds were s.c. administered as follows: physiological saline: once daily for eleven days starting from day 0 up to day 10. DFO: 0.5 ml in distilled water in a dose of 10 and 30 mg/kg once daily for eleven days, on day 0 up to day 10 after tumour inocculation. 10-EDAM: 0.5 ml in distilled water in a dose of 3 and 6 mg/kg, once daily on days 1, 3, 5, 7 and 9 after tumour inocculation.
Both hind legs were removed from the body, weighed, and the difference between the tumour bearing and the tumour free leg was taken as the tumour weight of one idividual mouse.
Lungs were filled up with Pelikan-ink via the trachea, fixed in Fekete-solution and metastases (white spot on black back-ground) on the lung surface were counted microscopically.

A further assay relates to L-1210 tumour cells. Kind of assay: L-1210 tumour growth in mice. Type of assay: in vivo. Particulars: day 8. As to the method:
One hour prior to kill on day 8 the mice received one ip injection of 0.002 mCi of 3H-thymidine per g body weight. Cells were harvested from the peritoneal cavity, the volume of ascites measured and the cell counts determined in a coulter counter, after lysis of red cells with zap-oglobin, for calculation of total tumour cell numbers. Also, of each sample cell smears were done, Feulgen stained and autoradiographed, whereby the number and percentage of labelled cells was determined and used as a measure for proliferating cells.

Assay [1] relates to HL-60 cells. Kind of assay: HL-60 colony growth with cytostatic compounds alone or with 1 µM DFO. Type of assay: cell-based, human. Particulars: cytostatic alone, various concentrations. As to the method: HL-60 cells (10⁴/ml) were plated in 0.8 % methycellulose in RPMI-1640 medium supplemented with 20 % heat inactivated (56°C, 30 min) fetal calf serum at a final volume of 1 ml/culture plate. Cultures were set up in duplicates and maintained at 37°C in a 5 % CO₂ humidified atmosphere. Deferoxamine was dissolved in iron-free RPMI culture medium and added at the initiation of culture at different concentrations (1-10 µM). Colonies were counted at 7 days using an inverted microscope. A cluster of more than 20 cells was defined as a colony. Individual colonies were plucked from culture plates spread on glass slides and morphologically assessed after preparation with Wright's stain and non-specific esterase in the presence of fluoride (29). The self renewal capacity of cells was assessed according to McCulloch et al (30). RPMI-1640 medium was added to culture dishes for 2 hrs; the contents of each dish were then transferred into a tube, centrifuged and washed with medium three times. Cells from each dish were counted separately, and viability was assessed by trypan blue dye exclusion. Cells (1x10⁴/ml) from each dish were recultured in 0.8 % methylcellulose as before. […]
Cultures were evaluated at day 6 using an inverted microscope (100 x magnification). A cluster of more than 20 cells was determined as a colony.

In assay [2] the test system is HL-60 cells. Kind of assay: Colony growth of HL-60 cells. Type of assay: cell-based, human. As to conditions: concentration of 10 µm. The method, then: HL-60 cells, a promyeloctic leukemia cell line originally developed by Dr. R. Gallo, NIH, were used. Cells were grown in RPMI supplemented with 10 % heat inactivated fetal calf serum (FCS, Flow Laboratories, Rockville, MO) and 2 mM glutamine (Gibco, Berkely, CA), at densities ranging from 1-2 x 10⁵/ml to 1-10⁶/ml, in a 5 % CO₂ humidified atmosphere at 37°C.
HL-60 cells (10⁴/ml) were plated in 0.8 % methycellulose in RPMI-1640 medium supplemented with 20 % heat inactivated (56°C, 30 min) fetal calf serum at a final volume of 1 ml/culture plate. Cultures were set up in duplicates and maintained at 37°C in a 5 % CO₂ humidified atmosphere. Deferoxamine was dissolved in iron-free RPMI culture medium and added at the initiation of culture at different concentrations (1-10 µM). Colonies were counted at 7 days using an inverted microscope. A cluster of more than 20 cells was defined as a colony. Individual colonies were plucked from culture plates spread on glass slides and morphologically assessed after preparation with Wright's stain and non-specific esterase in the presence of fluoride (29). The self renewal capacity of cells was assessed according to McCulloch et al (30). RPMI-1640 medium was added to culture dishes for 2 hrs; the contents of each dish were then transferred into a tube, centrifuged and washed with medium three times. Cells from each dish were counted separately, and viability was assessed by trypan blue dye exclusion. Cells (1x10⁴/ml) from each dish were recultured in 0.8 % methylcellulose as before.

Setting [3] is: DFO 400 mg/kg/d s.c. minipump from day 2, Ara-C 200 mg/kg once ip on day 6.

Consider `CCC(Cc1cnc2nc(N)nc(N)c2n1)c1ccc(C(=O)N[C@@H](CCC(=O)O)C(=O)O)cc1` (stereo partly drawn) [10-EDAM, N-[4-[1-(2,4-Diamino-6-pteridinyl)but-2-yl]-benzoyl]-L-glutamic acid], for which, in the assay on Lewis lung carcinoma (group 4: 10-EDAM 3 mg/kg s.c.), the “Number of lung metastases % of control” value worked out at 66%, the “Number of lung metastases x̄ ± SD” value was found to be 44 ± 18, the “Tumour weight % of control” value is on record as 91% and the “Tumour weight x̄ ± SD” value is given as 6.87 ± 0.47 g. For the same molecule, in the assay on Lewis lung carcinoma (group 5: 10-EDAM 6 mg/kg s.c.), the “Number of lung metastases % of control” value is listed as 34%, the “Number of lung metastases x̄ ± SD” value is on record as 23 ± 10, the “Tumour weight % of control” value came out at 89% and the “Tumour weight x̄ ± SD” value stood at 6.70 ± 1.06 g.
Regarding `Nc1ccn([C@@H]2O[C@H](CO)[C@@H](O)[C@@H]2O)c(=O)n1` [Ara-C, 1-β-D-arabinofuranosyl-cytosine], in the assay on L-1210 tumour cells (3H-thymidine labelled cells, same doses as Table 12), the “proportions of proliferating cells” value is 26 % ± 6%. Further, in the assay with L-1210 tumour cells (setting [3]), the “Number of cells in the peritoneal cavity % of control” value came to 30%, the “Number of cells in the peritoneal cavity x̄ ± SD” value is reported as 1.11 ± 0.40 * 10^8, the “Number of proliferating cells in peritoneal cavity % of control” value was found to be 24% and the “Number of proliferating cells in peritoneal cavity x̄ ± SD” value is on record as 0.29 ± 0.10 * 10^8. Besides, in the assay with HL-60 cells [1], the HL-60 colony growth result is recorded as “inhibited colony growth in a dose-dependent manner”.
In the case of `CC(=O)N([O-])CCCCCNC(=O)CCC(=O)N([O-])CCCCCNC(=O)CCC(=O)N([O-])CCCCCN.[Fe+3]` [Ferrioxamine], the colony formation entry in the assay on HL-60 cells [2] is given as “did not affect colony formation”.
As for `CN(Cc1cnc2nc(N)nc(N)c2n1)c1ccc(C(=O)N[C@@H](CCC(=O)O)C(=O)O)cc1` [methotrexate, L-(+)-N-[4-N-(2,4-diamino-6-pteridinyl)-methyl-N-methyl-amino]-benzoyl-L-glutamic acid], in the assay with HL-60 cells [1], the HL-60 colony growth result is given as “dose-dependent growth inhibitory effect”.

The values are drawn from EP0227593A1, “Use of chelating agents” (THE HOSPITAL FOR SICK CHILDREN, priority 1985, dated 1987).
